According to ChEMBL document CHEMBL1201862, “PubChem BioAssay data set” (2004):
Activity calls are given as the source filed them.

How the values were obtained:
[1] = HEK293 Cytotoxicity Assay Measured in Cell-Based System Using Plate Reader - 7071-01_Inhibitor_Dose_CherryPick_Activity_Set2.; format: functional
[2] = test system: HEK293; test: HEK293T cell cytotoxicity, dose response, cytotoxicity control, ATP luminescence, cherry-pick samples (AID 687005); format: functional, cell-based; conditions: Homo sapiens;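 note: cells exposed to compound for 48 hours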
[3] = molecular target: Steroidogenic factor 1 (Homo sapiens, UniProt Q13285); test: Counterscreen for inverse agonists of the liver receptor homolog-1 (LRH-1; NR5A2): Luminescence-based cell-based high throughput dose response assay to identify inverse agonists of the Steroidogenic Factor 1 Nuclear Receptor (SF1; NR5A1).; format: functional
[4] = StAR promoter reporter inhibition counter-screen, dose response, counter-screen for LRH-1 inverse agonist project, cell-based, luminescence, luciferase reporter (AID 651969); format: functional
[5] = molecular target: Nuclear receptor subfamily 5 group A member 2 (Homo sapiens, UniProt O00482); format: functional, cell-based;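 note: HEK293T cells transfected with LRH-1 and a StAR promoter luciferase reporter; potency for inhibitors that lower LRH-1 driven reporter light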
[6] = ARNT/TACC3 interaction disruptors, potency, confirmation, biochemical, AlphaScreen, cherry-picked samples (AID 651703); format: functional, Homo sapiens;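 note: His-tagged ARNT PAS-B domain paired with GST-TACC3 E629A dimer coactivator fragment; potency of inhibitors that break up the complex and lower AlphaScreen signal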
[7] = test system: A549; test: A549 cell toxicity, dose response, cytotoxicity control, plate reader, cherry-pick samples (AID 687028); format: functional, cell-based; conditions: Homo sapiens
[8] = PAX2 cell-based inhibition, dose response, selectivity assay for PAX8 inhibitor project, plate reader, dry powder samples (AID 743048); format: functional;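 note: HEK293 cells carrying a WT1 promoter luciferase reporter driven by expressed Pax2; potency is for inhibition of Pax2 driven reporter signal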
[9] = cytotoxicity in COV434 cells, dose response, cytotoxicity control for PAX8 inhibitor project, cell-based, plate reader, dry powder, SA7 (AID 743145); format: functional
[10] = IGROV1 ovarian cancer cell cytotoxicity, dose response, PAX8 inhibitor project, plate reader, dry powder samples (AID 743043); format: functional, cell-based; conditions: IGROV-1
[11] = PAX5 activity inhibitors, dose response, selectivity assay for PAX8 inhibitor project, cell-based, plate reader, dry powder samples (AID 743047); format: functional;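 note: HEK293 cells carrying a Pax5 driven CD19 promoter luciferase reporter; potency of inhibitors that lower reporter luminescence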
[12] = molecular target: Paired box protein Pax-8 (Homo sapiens, UniProt Q06710); test: inhibitors of PAX8-driven TPO luciferase reporter, dose response, RMG-I cells, cherry-pick (AID 687027); format: functional, cell-based;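 note: luciferase reporter driven by Pax8 target thyroperoxidase promoter measured by SteadyGlo luminescence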
[13] = cytotoxicity in OVCAR4 cells, dose response, cytotoxicity control for PAX8 inhibitor project, cell-based, plate reader, dry powder, SA11 (AID 743150); format: functional; conditions: OVCAR-4
[14] = cytotoxicity in COV362 ovarian cancer cells, dose response, cytotoxicity control for PAX8 inhibitor project, cell-based, plate reader, dry powder, SA12 (AID 743144); format: functional
[15] = NIH:OVCAR-3 ovarian cancer cell cytotoxicity, dose response, PAX8 inhibitor project, plate reader, dry powder samples (AID 743044); format: functional, cell-based
[16] = cytotoxicity in OV-90 ovarian cancer cells, dose response, PAX8 inhibitor project, cell-based, plate reader, dry powder, SA8 (AID 743149); format: functional
[17] = cytotoxicity dependent on PAX8, dose response, cell-based, plate reader, dry powder (AID 743049); format: functional
[18] = MITF: Counter assay: A375 proliferation Measured in Cell-Based System Using Plate Reader - 2084-03_Inhibitor_Dose_DryPowder_Activity_Set8.; format: functional; conditions: A-375
[19] = MITF Orthogonal Assay: SK-MEL-5 CTG Assay Measured in Cell-Based System Using Plate Reader - 2084-02_Inhibitor_Dose_DryPowder_Activity_Set7.; format: functional
[20] = TRPM1 promoter luciferase reporter signal decrease, dose response, MITF inhibitor project, cell-based, SK-MEL-5, dry powder, set 8 (AID 624430); format: functional
[21] = A Cell-Based Confirmatory Screen for Compounds that Inhibit VEEV, TC-83 (7).; format: functional
[22] = NIH/3T3 fibroblast cytotoxicity, dose response, cytotoxicity control, cell-based, plate reader, dry powder, set 2 (AID 652280); format: functional; conditions: NIH3T3
[23] = T. cruzi growth inhibition in host cells, dose response, cell-based, plate reader, dry powder, set 2 (AID 652275); format: functional
[24] = P. falciparum Dd2 growth inhibitors, dose response, SYBR Green, cherry-picked samples (AID 1159567); format: functional, cell-based
[25] = molecular target: Endoplasmic reticulum aminopeptidase 1 (Homo sapiens, UniProt Q9NZ08); test: ERAP1 aminopeptidase inhibitors, dose response, biochemical, cherry-pick, set 2, plate reader (AID 743314)
Sequence of Endoplasmic reticulum aminopeptidase 1 (Q9NZ08 whole entry): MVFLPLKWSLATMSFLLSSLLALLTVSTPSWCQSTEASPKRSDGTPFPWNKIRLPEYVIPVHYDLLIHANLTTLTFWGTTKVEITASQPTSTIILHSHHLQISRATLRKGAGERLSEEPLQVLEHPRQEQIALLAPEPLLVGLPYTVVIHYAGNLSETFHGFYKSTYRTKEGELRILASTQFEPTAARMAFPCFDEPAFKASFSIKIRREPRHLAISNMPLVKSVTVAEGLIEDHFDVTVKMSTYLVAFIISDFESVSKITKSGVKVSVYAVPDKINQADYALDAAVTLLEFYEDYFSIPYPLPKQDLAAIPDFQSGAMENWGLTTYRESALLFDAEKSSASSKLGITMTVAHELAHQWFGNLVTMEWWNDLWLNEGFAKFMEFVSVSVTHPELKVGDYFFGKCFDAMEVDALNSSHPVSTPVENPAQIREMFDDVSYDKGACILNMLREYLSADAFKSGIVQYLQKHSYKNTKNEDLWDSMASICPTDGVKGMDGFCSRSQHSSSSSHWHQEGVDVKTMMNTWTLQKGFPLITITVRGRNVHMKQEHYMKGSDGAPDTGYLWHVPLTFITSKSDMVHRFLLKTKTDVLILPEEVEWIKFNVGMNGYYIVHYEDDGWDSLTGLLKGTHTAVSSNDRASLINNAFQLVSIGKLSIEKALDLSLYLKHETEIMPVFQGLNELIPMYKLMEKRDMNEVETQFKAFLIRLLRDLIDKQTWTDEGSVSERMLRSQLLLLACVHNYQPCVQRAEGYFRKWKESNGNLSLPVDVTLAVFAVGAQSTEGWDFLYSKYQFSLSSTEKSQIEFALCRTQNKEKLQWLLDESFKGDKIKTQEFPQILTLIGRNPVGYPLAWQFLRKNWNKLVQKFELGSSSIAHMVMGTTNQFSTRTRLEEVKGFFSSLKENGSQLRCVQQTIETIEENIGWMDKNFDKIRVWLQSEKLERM

Sequence of Nuclear receptor subfamily 5 group A member 2 (O00482 whole entry, the tested form may be a part): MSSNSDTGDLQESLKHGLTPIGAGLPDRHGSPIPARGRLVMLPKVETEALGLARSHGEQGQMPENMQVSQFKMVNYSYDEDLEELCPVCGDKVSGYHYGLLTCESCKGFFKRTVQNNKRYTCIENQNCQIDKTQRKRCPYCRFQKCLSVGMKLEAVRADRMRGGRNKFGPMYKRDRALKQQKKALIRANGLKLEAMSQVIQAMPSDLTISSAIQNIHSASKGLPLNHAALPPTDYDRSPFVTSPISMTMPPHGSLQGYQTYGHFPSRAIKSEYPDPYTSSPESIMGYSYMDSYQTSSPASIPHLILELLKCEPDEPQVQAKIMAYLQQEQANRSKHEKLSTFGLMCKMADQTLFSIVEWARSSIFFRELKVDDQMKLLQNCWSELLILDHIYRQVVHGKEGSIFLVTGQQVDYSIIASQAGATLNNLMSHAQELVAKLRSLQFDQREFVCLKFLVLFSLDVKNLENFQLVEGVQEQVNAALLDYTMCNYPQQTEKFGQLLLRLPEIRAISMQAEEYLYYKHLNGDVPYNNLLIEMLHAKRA
Sequence of Steroidogenic factor 1 (Q13285 whole entry): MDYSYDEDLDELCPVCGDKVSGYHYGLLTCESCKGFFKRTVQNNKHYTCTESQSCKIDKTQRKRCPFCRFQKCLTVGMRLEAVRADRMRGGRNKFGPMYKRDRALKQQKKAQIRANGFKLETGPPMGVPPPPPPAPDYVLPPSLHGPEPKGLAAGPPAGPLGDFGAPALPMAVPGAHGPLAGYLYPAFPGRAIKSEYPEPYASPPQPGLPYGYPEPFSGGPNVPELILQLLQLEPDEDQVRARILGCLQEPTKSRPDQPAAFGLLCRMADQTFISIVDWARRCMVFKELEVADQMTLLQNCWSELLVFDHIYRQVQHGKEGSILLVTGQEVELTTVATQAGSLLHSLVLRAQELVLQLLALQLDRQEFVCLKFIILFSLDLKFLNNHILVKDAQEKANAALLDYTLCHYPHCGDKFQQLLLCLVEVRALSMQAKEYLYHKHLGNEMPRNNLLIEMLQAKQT
Sequence of Paired box protein Pax-8 (Q06710 whole entry): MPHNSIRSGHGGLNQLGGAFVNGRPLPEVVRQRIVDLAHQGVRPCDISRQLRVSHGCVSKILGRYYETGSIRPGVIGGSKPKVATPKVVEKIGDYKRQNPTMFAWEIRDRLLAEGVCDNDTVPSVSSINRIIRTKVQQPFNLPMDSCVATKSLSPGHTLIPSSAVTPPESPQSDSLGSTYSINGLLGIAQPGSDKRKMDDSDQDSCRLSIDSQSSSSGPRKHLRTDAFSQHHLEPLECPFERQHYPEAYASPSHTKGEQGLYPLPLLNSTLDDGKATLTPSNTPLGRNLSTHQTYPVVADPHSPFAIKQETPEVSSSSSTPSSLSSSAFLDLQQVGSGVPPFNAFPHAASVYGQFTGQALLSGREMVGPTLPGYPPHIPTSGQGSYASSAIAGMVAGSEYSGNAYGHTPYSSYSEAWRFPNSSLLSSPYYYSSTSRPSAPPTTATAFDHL

O=C(c1cccc(Br)c1)N1CCN(c2ccccn2)CC1
AC50 [1]: > 52 µM (inactive)
AC50 [2]: > 52 µM (inactive)

CC(=O)Nc1cc(-c2ccc(F)cc2)cn2c(-c3ccc(S(C)(=O)=O)cc3)cnc12
IC50 [3]: 3.15 µM (active)
IC50 [4]: 21.3 µM (inactive)
IC50 [5]: 8.66 µM (active)

C[C@@H]1CN([C@H](C)CO)C(=O)c2cc(N(C)C)ccc2O[C@@H](C)CCCCO[C@@H]1CN(C)Cc1ccc2c(c1)OCO2
AC50 [6]: 74.9 µM (active)

C[C@@H]1CCCCO[C@H](CN(C)C(=O)Nc2ccc(C(F)(F)F)cc2)[C@H](C)CN([C@@H](C)CO)C(=O)c2cc(NS(=O)(=O)c3ccc(F)cc3)ccc2O1
AC50 [7]: 28.1 µM (active)

COc1ccc(S(=O)(=O)Nc2ccc3c(c2)C(=O)N([C@@H](C)CO)C[C@H](C)[C@H](CN(C)Cc2ccc(C(F)(F)F)cc2)OCCCC[C@H](C)O3)cc1
AC50 [8]: 15.5 µM (active)
AC50 [9]: 26.5 µM (active)
AC50 [10]: 34.5 µM (active)
AC50 [11]: 19.6 µM (active)
AC50 [12]: 5.59 µM (active)
AC50 [13]: 33.6 µM (active)
AC50 [14]: 38.3 µM (active)
AC50 [15]: 17.1 µM (active)
AC50 [16]: 21.9 µM (active)
AC50 [17]: 24.2 µM (active)

CN1CCN(C2=C(Nc3ccc(Cl)c(Cl)c3)C(=O)c3ccccc3C2=O)CC1
AC50 [18]: 27.9 µM (active)
AC50 [19]: 7.66 µM (active)
AC50 [20]: 6.64 µM (active)

O=c1c2cc([N+](=O)[O-])ccc2nc(CN2CCCNC2)n1-c1ccccc1
IC50 [21]: 1.13 µM (active)

CN(C)CC#Cc1cccc(-c2nc(C(=O)N[C@@H]3CCN(Cc4ccccc4)C3)cc3c2[C@H](CCO)N([S+]([O-])C(C)(C)C)C3)c1 (stereo not given in full)
AC50 [22]: 5.14 µM (active)
AC50 [23]: 0.58 µM (active)
AC50 [24]: 2.71 µM (active)

CCCNC(=O)[C@H]1[C@H](CO)[C@H]2Cn3c(ccc(/C=C/c4ccccc4)c3=O)[C@H]2N1CCC
AC50 [25]: 14.8 µM (active)
